The target in the test is T1, abc isoform of human TMEM16A channel expressed in CHO cells (Homo sapiens, UniProt Q5XXA6, DEL476-501).
T1 construct: expressed in transfected cells; host or cells: CHO cells, doxycycline-inducible expression under Blasticidin/Zeocin selection
T1 sequence (Q5XXA6 with tags, fused parts or gaps isoform Q5XXA6-5 DEL539-564): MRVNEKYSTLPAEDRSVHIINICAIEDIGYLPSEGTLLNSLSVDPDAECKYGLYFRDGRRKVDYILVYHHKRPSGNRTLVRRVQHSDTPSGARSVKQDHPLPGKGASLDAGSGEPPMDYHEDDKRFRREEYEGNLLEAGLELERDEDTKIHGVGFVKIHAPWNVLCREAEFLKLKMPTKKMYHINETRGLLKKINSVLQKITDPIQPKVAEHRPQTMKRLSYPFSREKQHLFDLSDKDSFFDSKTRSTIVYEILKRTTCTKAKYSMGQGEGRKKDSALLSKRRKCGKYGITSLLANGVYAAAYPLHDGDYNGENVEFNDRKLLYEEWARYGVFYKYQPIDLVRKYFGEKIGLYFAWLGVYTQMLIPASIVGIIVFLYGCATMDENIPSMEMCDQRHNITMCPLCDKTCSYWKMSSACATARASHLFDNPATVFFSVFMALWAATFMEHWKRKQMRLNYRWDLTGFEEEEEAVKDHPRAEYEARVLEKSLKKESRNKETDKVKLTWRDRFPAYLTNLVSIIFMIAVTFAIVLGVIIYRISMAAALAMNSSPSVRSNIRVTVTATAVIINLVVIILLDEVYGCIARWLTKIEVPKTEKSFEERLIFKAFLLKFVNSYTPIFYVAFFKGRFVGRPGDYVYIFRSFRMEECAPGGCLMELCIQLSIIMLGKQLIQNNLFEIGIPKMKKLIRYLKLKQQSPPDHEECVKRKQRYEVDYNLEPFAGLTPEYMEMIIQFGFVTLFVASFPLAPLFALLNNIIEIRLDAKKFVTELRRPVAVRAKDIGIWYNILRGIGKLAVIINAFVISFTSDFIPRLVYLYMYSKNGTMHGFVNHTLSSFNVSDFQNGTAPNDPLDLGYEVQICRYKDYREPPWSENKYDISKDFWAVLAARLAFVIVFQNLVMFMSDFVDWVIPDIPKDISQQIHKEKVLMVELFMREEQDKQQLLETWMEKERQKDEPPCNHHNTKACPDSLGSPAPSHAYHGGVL
The test can be described thus: Automated patch clamping (QPatch) assay to measure TMEM16A activity in whole-cell. The class given is cell-based. The note with it: for pEC50: CHO cells expressing human TMEM16A (abc), whole-cell automated patch clamp, Hill fit, read-out: TMEM16A QPATCH assay EC50 V3 EC50; for Emax: CHO, maximum current at highest dose relative to reference potentiator at maximal concentration (upper limit) and vehicle (lower limit), read-out: TMEM16A QPATCH assay EC50 V3 Assay Window (% TMEM16A max activation). In a few lines: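 Whole-cell currents were recorded by planar automated patch clamp from induced CHO cells (doxycycline 1 μg/mL, 18-24 h), using a −70 mV hold, +70 mV step and −90 to +70 mV ramp. Values: Hill-fitted EC50, and activation scaled between vehicle current and reference-potentiator maximum; 0.3% DMSO final.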
(In general: The patch-clamp technique gives a direct electrical read-out from membranes.)

pEC50: −log10 of the molar value. Structures can show the parent of a compound that is named as a salt.

The term pEC50 denotes the EC50 on a negative log10 scale, so that one unit is a factor of ten.

For `CCC(CC)NC(=O)c1cnc(-c2cccc(-c3nnc(C(=O)NC(CC)CC)n3CCOC)c2)o1` [Example 15.5, 2-(3-(4-(2-Methoxyethyl)-5-(Pentan-3-Ylcarbamoyl)-4H-1,2,4-Triazol-3-Yl)Phenyl)-N-(Pentan-3-Yl)Oxazole-5-Carboxamide], the pEC50 was 6.36 and the Emax turned out to be 83%.
In the same order, the values of `CCCC(CCC)NC(=O)c1cnc(-c2cccc(-c3cc(C(=O)NC(CC)CC)n[nH]3)c2)o1` [Example 1.35, N-(Heptan-4-Yl)-2-(3-(3-(Pentan-3-Ylcarbamoyl)-1H-Pyrazol-5-yl)Phenyl)Oxazole-5-Carboxamide] are 7.15 and 90%.
In the case of `CCOC(=O)C(C)(C)NC(=O)c1cnc(-c2cccc(-c3cc(C(=O)NC(CC)CC)n[nH]3)c2)o1` [Example 1.51, Ethyl 2-Methyl-2-(2-(3-(3-(Pentan-3-Ylcarbamoyl)-1H-Pyrazol-5-Yl)Phenyl)Oxazole-5-Carboxamido)Propanoate Trifluoroacetate], the pEC50 is 6.01 and the Emax was 64%.
Consider `CCC(CC)NC(=O)c1cc(-c2cccc(-c3ncc(C(=O)NC4CCCC4)o3)c2)[nH]n1` [Example 1.2], for which the pEC50 was 6.10 and the Emax is 83%.
In the same order, the values of `CCC(CC)NC(=O)c1cc(-c2cccc(-c3ncc(C(=O)NCC(=O)OC(C)C)o3)c2)[nH]n1` [Example 1.32, Isopropyl 2-(2-(3-(3-(Pentan-3-Ylcarbamoyl)-1 H-Pyrazol-5-yl)Phenyl)Oxazole-5-Carboxamido)Acetate] are 6.06 and 77%.

These data come from US20220306617A1, “SUBSTITUTED 1,3-PHENYL HETEROARYL DERIVATIVES AND THEIR USE IN THE TREATMENT OF DISEASE” (NOVARTIS AG, priority 2019, published 2022).
